{"source": "patent US20230145555A1", "about": "(priority 2020, published 2023)", "key": {"[1]": {"system": "SARS-CoV-2", "assay": "Proof of concept study: time to negative SARS-CoV-2 test in asymptomatic positive patients", "type": "in vivo, human", "conditions": "resveratrol alone by nasal and throat spray and/or inhalation, 6.0 mg per day for 2 weeks; 40 patients", "text": "About 100 adult asymptomatic patients, which are positive for SARS-CoV-2, are included in the study after a confirmatory test. […] Subsequently, the patients have a daily SARS-CoV-2 tests until day 7 and then at End of Treatment day 14."}, "[2]": {"conditions": "cited from earlier work"}, "[3]": {"system": "NLRP3 inflammasome", "conditions": "macrophages; cited from earlier work"}, "[4]": {"system": "K18-hACE2 transgenic mouse", "type": "in vivo", "conditions": "after 7 days"}, "[5]": {"conditions": "RSV 30 mg in food (aqueous phospholipid formulation)"}, "[6]": {"conditions": "RSV 45 mg in food (aqueous phospholipid formulation)"}, "[7]": {"conditions": "RSV 60 mg in food (aqueous phospholipid formulation)"}}, "note": "Where two headings read alike, the source gives them in different places.", "data": [{"smiles": "Oc1ccc(/C=C/c2cc(O)cc(O)c2)cc1", "note": "[RSV, resveratrol]", "values": [{"measurement": "time to negative SARS-CoV-2 test compared to patients without treatment", "setting": "[1]", "result": "significantly earlier"}, {"measurement": "solubility in water", "setting": "[2]", "result": "almost insoluble"}, {"measurement": "NLRP3 inflammasome-derived IL-1β secretion and pyroptosis", "setting": "[3]", "result": "inhibits"}, {"measurement": "Survival Rate [%]", "setting": "[4]; [5]", "result": 37.5, "unit": "%"}, {"measurement": "Survival Rate n/8", "setting": "[4]; [5]", "result": 3, "unit": "n/8"}, {"measurement": "Survival Rate [%]", "setting": "[4]; [6]", "result": 50, "unit": "%"}, {"measurement": "Survival Rate n/8", "setting": "[4]; [6]", "result": 4, "unit": "n/8"}, {"measurement": "Survival Rate [%]", "setting": "[4]; [7]", "result": 62.5, "unit": "%"}, {"measurement": "Survival Rate n/8", "setting": "[4]; [7]", "result": 5, "unit": "n/8"}]}]}
